In patent US20230309522A1, “ANIMAL MODEL, METHODS FOR MAKING AND USING THEREOF, AND COMPOSITION FOR TREATING ATAXIA” (priority 2022, published 2023):
Marks after values point to notes of the source that are not given here.

How the values were obtained:
Format in all cases: in vivo, mouse
[1] = tested on: Cry1; assay: Quantitative RT-PCR of brain regions, Cry1 mRNA
Experimental: (§1) To prepare RNA by RT-PCR, mice were deeply anesthetized with isoflurane inhalation. […] Total RNA was extracted by TRIzol reagent-based procedure (Thermofisher scientific, USA) and quantified by NanoDrop 2000 spectrophotometer ([…], USA). The total RNA obtained (20 μg) was reverse-transcribed to synthesize complementary DNA (cDNA) using a first-strand cDNA synthesis kit (Takara. Japan). Quantitative assays were performed on each cDNA using the primers listed in Table 3 with SYBR® Premix Ex Taq™ (Takara, Japan) in the given cycling condition (95° C. for 30 seconds, 32 cycles of 95° C. for 5 seconds and 60° C. for 30 seconds), as provided by the manufacturer's instruction.

[2] = tested on: Per1; assay: Quantitative RT-PCR of brain regions, Per1 mRNA
Experimental: as §1

[3] = tested on: C57BU6J mice; assay: Rotarod test on 3AP-induced ataxia mice; details: for motor learning, percentage change in rotarod performance: 3AP local; for rotarod-based motor behavior: 3AP-induced ataxia mice, FIG. 1C
Description: (§2) Four different behavior tests were used in the present disclosure: footprint, irregular ladder, rotarod and body balance (elevated beam) tests. These behavior tests have been widely used for detection of ataxia^40-42. Two different time durations were used to differentiate the peak and trough expressions of the Bmal1 gene. i.e., daytime described herein refers to seven hours later after light exposure (˜2 pm); nighttime described herein refers to four hours later after dim light ([…]). These behavior tests were carried out at daytime (˜2 pm) and nighttime (˜11 pm), given the differential expression of Bmal1 in cerebellum having the highest level at ˜2 pm and the lowest level at ˜11 pm.
Rotarod test: It has been widely used in determining general motor skills. In brief, mice walked on the rotarod with a width of 5 cm, a height of 20 cm and a diameter of 3 cm of rolling rods. The total time for mice to sustain on the rotarod in increasing speeds at a unit of revolution per minute (rpm) was taken for a measurement of motor skills such as balance and gait functions. Motor learning was calculated as a percentage change in the performance (at a maximum speed) over 5 min, 10 min or 15 min blocks sequentially.

[4] = tested on: C57BU6J mice; assay: Elevated beam test on 3AP-induced ataxia mice
Description: as §2
Elevated beam test: Every single slip was counted during the walking^43. Mice were requested to walk through a wall with a distance of 40 cm, a height of 16 cm and a width of 0.5 cm. All tests were conducted in a quiet environment without noise and bright light disturbance.

[5] = tested on: Calbindin; assay: Immunohistochemistry of cerebellar tissue, relative calbindin intensity; details: 3AP-injected mice, relative to WT 1.00, FIG. 3C
Experimental: (§3) The cerebellar tissue was isolated from anesthetized mice (six weeks old) and fixed with paraformaldehyde in […] (Thermofisher scientific, USA) and overnight at 4° C. The cerebellar tissue was then dehydrated by being incubated with PBS containing 30% sucrose at 4° C. then embedded in optimal cutting temperature (OCT) medium (Thermofisher scientific, USA) and frozen by using dry ice. The frozen tissues were cut with a cryostat (Thermo HM525NX Cryostat with UV Disinfection, Thermofisher scientific, USA) at 20 µm thickness and slices were placed on glass slides (Thermofisher scientific, USA). For immunohistochemical analysis, cerebellar tissue specimens were washed with PBS for 30 min and blocked with 10% bovine serum albumin (Sigma-Aldrich, USA) in PBST for 30 min at room temperature and then incubated with respective primary antibodies (Calbindin [8 μg/mL]: Invitrogen, USA; Tyrosine Hydrolase [1:400]: Invitrogen. USA) for overnight at 4° C. The specimens were further incubated with secondary antibodies (1:1500, Invitrogen. USA) for overnight at 4° C. […] The DAPI intensity and primary antibody (Calbindin or Tyrosine Hydrolase) intensity were recorded. The relative primary antibody intensity was calculated based on the following formula: […]

[6] = tested on: Bmal1; assay: Quantitative RT-PCR of brain regions, Bmal1 mRNA
Experimental: as §1

[7] = tested on: Clock; assay: Quantitative RT-PCR of brain regions, Clock mRNA
Experimental: as §1

[8] = tested on: Tyrosine Hydrolase (TH); assay: Immunohistochemistry of substantia nigra compacta, Tyrosine Hydrolase expression; details: 3AP ataxia model vs wildtype, FIGS. 6A and 6B
Experimental: as §3

[9] = tested on: C57BU6J mice; assay: Footprint test on 3AP-induced ataxia mice
Description: as §2
Footprint test: Three measurements were included: i) front paw distance; ii) hind paw distance; and iii) stride. The footprint behavior tool was custom-made to have a narrow, foot-printable glass plate with the length of 85 cm and the width of 5 cm. Each paw distance was measured with footsteps printed during the walking across the narrow road.

[10] = tested on: C57BU6J mice; assay: Determining the least concentration of 3AP for induction of ataxia-like behaviors: survival time
Experimental: Six to seven-week-old C57BU6J and B6.129-Arnt1^tm1Bra/J (Bmal1 gene-deficient mice) male mice were used for all experiments described hereinafter. All experiments were performed on mice anesthetized by an intraperitoneal (i.p.) injection of 100 mg ketamine/kg and 20 mg xylazine/kg, based on their body weights.
In this example, a chemically-induced ataxia animal model was established upon systematic application of 3AP^19,20. Besides systematic (i.e. intraperitoneal, i.p., injection), local injection [in cerebellum, coordinate (Bregma): −7.08, 0, −2.1] of 3AP in C57BU6J mice could also be used to generate the chemically-induced ataxia animal models^23-25. Initially, different concentrations of 3AP were applied for determining the least concentration of 3AP for life-long induction of ataxia-like behaviors (Table 1).

[11] = tested on: C57BU6J mice; assay: Irregular ladder test on 3AP-induced ataxia mice
Description: as §2
Irregular ladder test: A mouse was requested to walk through an irregularly arranged ladder with a distance of 85 cm and a width of 5 cm. Every single slip during walk steps was counted as a failure of gait and balance measurement.

CC(=O)c1cccnc1 [3AP, 3-acetyl pyridine]
Relative level of mRNA, Cry1 ([1]; 25 mg 3AP, Cerebellum): 0.82 | Relative level of mRNA, Cry1 ([1]; 25 mg 3AP, Inferior Olive): 0.74 | Relative level of mRNA, Cry1 ([1]; 25 mg 3AP, Motor cortex): 0.87 | Relative level of mRNA, Cry1 ([1]; 25 mg 3AP, Striatum): 0.91 | Relative level of mRNA, Cry1 ([1]; 35 mg 3AP, Cerebellum): 0.66 | Relative level of mRNA, Cry1 ([1]; 35 mg 3AP, Inferior Olive): 0.70 | Relative level of mRNA, Cry1 ([1]; 35 mg 3AP, Motor cortex): 0.68 | Relative level of mRNA, Cry1 ([1]; 35 mg 3AP, Striatum): 0.89 | Relative level of mRNA, Per1 ([2]; 25 mg 3AP, Cerebellum): 0.81 | Relative level of mRNA, Per1 ([2]; 25 mg 3AP, Inferior Olive): 0.88 | Relative level of mRNA, Per1 ([2]; 25 mg 3AP, Motor cortex): 0.87 | Relative level of mRNA, Per1 ([2]; 25 mg 3AP, Striatum): 0.76 | Relative level of mRNA, Per1 ([2]; 35 mg 3AP, Cerebellum): 0.77 | Relative level of mRNA, Per1 ([2]; 35 mg 3AP, Inferior Olive): 0.90 | Relative level of mRNA, Per1 ([2]; 35 mg 3AP, Motor cortex): 0.87 | Relative level of mRNA, Per1 ([2]; 35 mg 3AP, Striatum): 0.86 | performance in the rotarod test ([3]; 3AP local injection in the cerebellum, daytime, FIG. 2A, WT 29.32): 14.32±1.02 rpm | motor learning, percentage change in rotarod performance ([3]; training time 5 min, Wild Type 76.4): −4.8 ± 4.22% | motor learning, percentage change in rotarod performance ([3]; training time 10 min, Wild Type 88.6): −4.1 ± 7.32% | motor learning, percentage change in rotarod performance ([3]; training time 15 min, Wild Type 95.46): −4.5 ± 4.12% | rotarod-based motor behavior ([3]; day, WT day 28.00): 14.57±1.38 rpm | rotarod-based motor behavior ([3]; night, WT night 17.25): 15.22±0.78 rpm | rotarod performance ([3]; local 3AP-intoxicated mice without Bmal1 viral vector, FIG. 4G, wildtype 30): 14.2±0.130 rpm | slips in the elevated beam test ([4]; 3AP local injection in the cerebellum, FIG. 2B, WT 0.87): 10.46±0.92 | number of slips, elevated beam ([4]; 3AP-induced ataxia mice, day, FIG. 1D, WT day 0.93): 10.23±0.23 | number of slips, elevated beam ([4]; 3AP-induced ataxia mice, night, FIG. 1D, WT night 9.92): 10.24±0.23 | number of slips, elevated beam ([4]; local 3AP-intoxicated mice without Bmal1 viral vector, FIG. 4H, wildtype 0.85): 10.7±0.176 | expression of calbindin in the Purkinje cell layer (relative intensity) [5]: 0.123±0.052 | Relative level of mRNA, Bmal1 ([6]; 25 mg 3AP, Cerebellum): 0.82 | Relative level of mRNA, Bmal1 ([6]; 25 mg 3AP, Inferior Olive): 0.85 | Relative level of mRNA, Bmal1 ([6]; 25 mg 3AP, Motor cortex): 0.93 | Relative level of mRNA, Bmal1 ([6]; 25 mg 3AP, Striatum): 0.94 | Relative level of mRNA, Bmal1 ([6]; 35 mg 3AP, Cerebellum, 0.00 = extremely low concentration or the absence of the gene tested): 0.00*** | Relative level of mRNA, Bmal1 ([6]; 35 mg 3AP, Inferior Olive, 0.00 = extremely low concentration or the absence of the gene tested): 0.00*** | Relative level of mRNA, Bmal1 ([6]; 35 mg 3AP, Motor cortex, 0.00 = extremely low concentration or the absence of the gene tested): 0.00*** | Relative level of mRNA, Bmal1 ([6]; 35 mg 3AP, Striatum, 0.00 = extremely low concentration or the absence of the gene tested): 0.00*** | mRNA expression of Bmal1 ([6]; local 3AP-intoxicated mice vs wildtype control, daytime, FIG. 3B): far reduced | Relative level of mRNA, Clock ([7]; 25 mg 3AP, Cerebellum): 0.83 | Relative level of mRNA, Clock ([7]; 25 mg 3AP, Inferior Olive): 0.86 | Relative level of mRNA, Clock ([7]; 25 mg 3AP, Motor cortex): 0.93 | Relative level of mRNA, Clock ([7]; 25 mg 3AP, Striatum): 0.77 | Relative level of mRNA, Clock ([7]; 35 mg 3AP, Cerebellum): 0.94 | Relative level of mRNA, Clock ([7]; 35 mg 3AP, Inferior Olive): 0.59* | Relative level of mRNA, Clock ([7]; 35 mg 3AP, Motor cortex): 0.82 | Relative level of mRNA, Clock ([7]; 35 mg 3AP, Striatum): 0.87 | Tyrosine Hydrolase (TH) expression in substantia nigra compacta (SNc) [8]: similarly expressed | front paw distance ([9]; 35 mg/kg 3AP-injected mice, FIG. 1A, WT 1.084): 0.832±0.112 cm | hind paw distance ([9]; 35 mg/kg 3AP-injected mice, FIG. 1A, WT 2.09): 4.67±0.208 cm | stride ([9]; 35 mg/kg 3AP-injected mice, FIG. 1A, WT 5.27): 1.11±0.088 cm | hind paw distance ([9]; local 3AP-intoxicated mice without Bmal1 viral vector, FIG. 4C, wildtype 2.13): 4.28±0.314 cm | stride ([9]; local 3AP-intoxicated mice without Bmal1 viral vector, FIG. 4D, wildtype 5.02): 1.10±0.124 cm | front paw distance ([9]; local 3AP-intoxicated mice without Bmal1 viral vector, FIG. 4E, wildtype 1.12): 1.10±0.053 cm | Survival time ([10]; 0.05 mg/kg, stereotaxic local injection to the cerebellum): No ataxia | Survival time ([10]; 0.1 mg/kg, stereotaxic local injection to the cerebellum): >120 h | Survival time ([10]; 0.15 mg/kg, stereotaxic local injection to the cerebellum): No survive | Survival time ([10]; 0.2 mg/kg, stereotaxic local injection to the cerebellum): No survive | Survival time ([10]; 25 mg/kg, intraperitoneal systematic injection): No ataxia | Survival time ([10]; 35 mg/kg, intraperitoneal systematic injection): >120 h | Survival time ([10]; 45 mg/kg, intraperitoneal systematic injection): 24 h | Survival time ([10]; 50 mg/kg, intraperitoneal systematic injection): 8 h | Survival time ([10]; 65 mg/kg, intraperitoneal systematic injection): 3 h | Survival time ([10]; 70 mg/kg, intraperitoneal systematic injection): 0.25 h | number of slips, irregular ladder ([11]; 3AP-induced ataxia mice, FIG. 1B, WT 1.61): 8.92±0.178 | number of slips, irregular ladder ([11]; local 3AP-intoxicated mice without Bmal1 viral vector, FIG. 4F, wildtype 0.87): 11.2±0.075
